Consider one molecule from patent US20220380801A1, “TRIPARTITE SYSTEMS FOR PROTEIN DIMERIZATION AND METHODS OF USE” (priority 2019, published 2022).

What all share (assay type): cell-based, human
Assay [1] concerns endogenous IL-2 gene in HEK293 cells. The assay can be described thus: Endogenous gene regulation assay (CRISPRa). The conditions noted are these: 300 nM simeprevir, split dCas9/AD cassette and IL-2 targeted gRNA. From the text: CRISPRa relies on the use of a dead Cas9 enzyme (dCas9) with no endonuclease activity to bind to a target site within the promoter region of an endogenous gene via a single guide RNA. Upon recruitment of a transcriptional activator, transcription of the endogenous gene is initiated.
The dCas9 and AD are separately fused to the two protein components of the CID such that, only in the presence of the small molecule inducer, the AD is brought into close proximity to dCas9, allowing recruitment of the transcription machinery to the promoter region of an endogenous gene via a single guide RNA (sgRNA). In this example, an activation plasmid was generated consisting of two functional units; an AD fused to the HCV NS3/4A PR (S139A) (SEQ ID 226) and a dCas9 fused to three tandem copies of PRSIM-23 (SEQ ID 228). The sequences are preceded by a CMV promoter and separated by an internal ribosome entry site (IRES). A gRNA plasmid was generated by golden gate assembly, utilising BsaI. […]
Transcriptional regulation assays were performed in adherent HEK293 cells cultured in 96-well plates. Cells enzymatically dissociated from a tissue culture flask were counted and plated at 2.5×10^4 cells/well. […] 72 hours post-treatment (day 6), the cell supernatant was harvested and IL-2 quantified using a V-PLEX Human IL-2 Kit (Meso Scale Discovery), as per the manufacturer's protocol.

The test system of assay [2] is Caspase 3 activity in kill switch-transduced HCT116 cells. Kind of assay: Kill switch Caspase 3 functional assay. Conditions: 10 nM simeprevir, relative to non-transduced cells. As for the experimental part:
(§1) HCT116 and HT29 transduced cells were generated following the same protocol with exception of using McCoy's 5A medium+10% foetal bovine serum as growth medium, supplemented with 2 μg/ml puromycin for selection of transduced cells.
(§2) Functional Caspase 9 activates Caspase 3, and this proteolytic activity can be determined using cleavage of non-fluorescent substrate DEVD-AMC into cleavage products DEVD and fluorescent AMC, such that AMC fluorescence signal at 430 nm is proportional to Caspase 3 activity. For the Caspase 3 assay, cells were plated in duplicate onto 6 well tissue-culture treated plates. 24 h later, one of the duplicate wells was treated with 10 nM simeprevir for 3 h. Cells lysates were analysed in triplicate using a Caspase 3 assay from BD Biosciences according to manufacturer's instruction with the modification that total protein input was normalised to 50 μg by BCA assay (LifeTechnologies). Fluorescence was determined on an Envision plate reader (PerkinElmer), Ex: 380 nm, Em: 430 nm. For quantification, RFU (raw fluorescence value) for wells that contained only the assay substrate were subtracted from all RFU derived from assay samples. Results were normalised to non-transduced, simeprevir-treated cells. Analysis was performed in Prism (GraphPad) using a One-Way-Anova followed by multiple comparisons.

Assay [3] relates to Caspase 3 activity in kill switch-transduced HT29 cells. The assay can be described thus: Kill switch Caspase 3 functional assay. Conditions: 10 nM simeprevir, relative to non-transduced cells. As for the experimental part: as §1, §2
For a further assay, the system named is hESC line Sa121. Kind of assay: PRSIM-based kill switch activity in ESC cells (confluency). As for the experimental part:
The hESC line Sa121 (TakaraBio Europe) was also transduced with the lentiviral particles encoding the PRSIM-based kill switch fusion protein described above (SEQ ID 223). Cells (passage 19) were plated at 3.5×10^5 cells/cm^2 in the DEF-CS culture system, and the cells were transduced 30 h later. 24 h after transduction, puromycin selection was initiated and the antibiotic selection was maintained until a stable cell pool was achieved.
To test the induction of the kill switch in Sa121 ES cells, the cells were plated at 3.5×10^5/cm^2 two days before inducing kill switch activity by treating with simeprevir at concentrations from 10 nm to 1 uM. The cells were imaged using the Incucyte S3 (EssenBioscience) at intervals ranging from 10-20 min; kill switch efficiency was quantified by image analysis of confluency.

As to `COc1ccc2c(O[C@@H]3C[C@H]4C(=O)N[C@]5(C(=O)NS(=O)(=O)C6CC6)C[C@H]5/C=C\CCCCN(C)C(=O)[C@@H]4C3)cc(-c3nc(C(C)C)cs3)nc2c1C` [simeprevir], in assay [1], the IL-2 secretion entry is on record as “resulted in secretion of IL-2”. The “Caspase 3 activity” value in assay [2] and in assay [3] was “significantly (p<0.0001) up-regulated” in each case. For the same molecule, the cell killing entry was “maximal cell killing was not reached” in the assay on hESC line Sa121 (10 nM simeprevir, 4 hours timeframe) and approximately 90% in the assay with hESC line Sa121 (100 nM simeprevir, within 4 hours). In addition, in the assay on hESC line Sa121 (1 μM simeprevir), the “onset of cell killing” value is approximately 15 min. Also, the “cells eliminated (cell confluency)” value in the assay on hESC line Sa121 (1 μM simeprevir, within 4 hours, kill switch-transduced Sa121) is reported as “up to 95%”. Moreover, the response to simeprevir result with hESC line Sa121 (wt (non-transduced) Sa121 cells) is “did not respond to treatment with simeprevir”.
